Values after ≈ are worked out from the molar mass of the structure shown. Read-outs that look alike come from different tables or passages of the source.
Assays:
[1] = Pharmacokinetic studies in mice (IP and IV); type: in vivo; conditions: for AUC / Cmax / Tmax / half-life / concentration at 8 h / bioavailability / MRT inf: male, C57BL/6 J, mouse, plasma; for concentration at 8 h: read-out: mean plasma concentration 8 h after injection; for bioavailability: intraperitoneal, IP versus IV
Kinetic solubility test = type: physicochemical; conditions: water, 25 °C, kinetic from dmso stock
Excerpt: Solubility(μmol/L)=Areafiltered×DFfiltered/Areastd×DFstd×[std]×DFstd

[2] = test system: periodontitis mice with circadian rhythm disorders; test: Ligature-induced periodontitis in circadian rhythm disordered (jet lag) mice; type: in vivo; conditions: for periodontal tissue destruction (HE staining): compared to DMSO-treated controls; for rhythmic expression of circadian genes in periodontal tissue: jet lag mice, 10 mg/kg IP daily for three weeks; for alveolar bone resorption (Micro-CT): jet lag periodontitis mice, 10 mg/kg IP daily, compared to DMSO; for IL-10-positive cell populations / NF-κB pathway mediators Tnf-α and Il-6: periodontal tissue; for TRAP-positive cell numbers (osteoclastic activity): relative to DMSO-treated periodontitis controls
Excerpt: Periodontitis has the highest incidence rate among all oral diseases and is a major cause of adult tooth loss. […] It is also reported that the inflammatory signaling pathways in periodontal tissue is over activated in periodontitis mice with circadian rhythm disorder.[40] Given this, we have substantial grounds to hypothesize that the restoration of circadian rhythms could potentially ameliorate periodontitis. According to our assumption, periodontal inflammation in circadian rhythm-disordered mice is more critical than in control mice under L:D conditions, resulting in a more severe alveolar bone resorption. Administration of Gala-SR and SR1078 is expected to restore the circadian rhythm, thereby alleviating the inflammation and reducing the alveolar bone absorption (Fig. 6a). […] The mice were initially subjected to a one-week L:D feeding regimen, followed by exposure to disordered conditions for four weeks. At the beginning of the third week, the mice received intraperitoneal injections of Gala-SR or SR1078 (10 mg/kg) or the equivalent amount of DMSO utilized to dissolve these modulators every day for three consecutive weeks. Mice without any treatment and mice treated with DMSO but kept in L:D condition were also set for controls. By the end of the fourth week, a ligature-induced periodontitis model was established as previously described,[39] and samples at different time points were collected one week later for subsequent tests (Fig. 6b).
Alveolar bones were harvested from mice and fixed after removal of soft tissues. The bones were then scanned at a resolution of 9 μm using Micro-CT (SkyScan 1176, Bruker). Images were reconstructed and quantified using InstaRecon/NRecon Research Workplace software. Metrics such as bone volume/total volume, trabecular thickness, bone surface area/bone volume, trabecular number, trabecular separation, and buccal-lingual alveolar bone resorption were used to assess differences among the mice.
Male C57BL/6 mice,[40] 2 months old, were housed under disrupted conditions for 4 weeks. From the third week, they were intraperitoneally injected with Gala-SR, SR1078, or DMSO for 3 weeks. In the fifth week, general anesthesia was administered via intraperitoneal injection of pentobarbital sodium (40 mg/kg), and a ligature was placed around the cervix of the maxillary second molar to establish the murine periodontitis model. Collect gingival tissue and liver tissue every 6 h continuously for a duration of 48 h.

RORα = biological target: T1, RORα (Homo sapiens, UniProt P35398); test: Luciferase reporter assay (G6Pase or FGF21 promoter) in HEK293T cells cotransfected with RORα; type: cell-based; conditions: HEK293T, RORα; for luminescence of G6Pase and FGF21 luciferase reporters: vs DMSO
T1 construct: HEK293T cells co-transfected with a full-length RORα gene and a luciferase reporter gene; expressed in transfected cells; host or cells: HEK293T
T1 sequence (P35398 1-523): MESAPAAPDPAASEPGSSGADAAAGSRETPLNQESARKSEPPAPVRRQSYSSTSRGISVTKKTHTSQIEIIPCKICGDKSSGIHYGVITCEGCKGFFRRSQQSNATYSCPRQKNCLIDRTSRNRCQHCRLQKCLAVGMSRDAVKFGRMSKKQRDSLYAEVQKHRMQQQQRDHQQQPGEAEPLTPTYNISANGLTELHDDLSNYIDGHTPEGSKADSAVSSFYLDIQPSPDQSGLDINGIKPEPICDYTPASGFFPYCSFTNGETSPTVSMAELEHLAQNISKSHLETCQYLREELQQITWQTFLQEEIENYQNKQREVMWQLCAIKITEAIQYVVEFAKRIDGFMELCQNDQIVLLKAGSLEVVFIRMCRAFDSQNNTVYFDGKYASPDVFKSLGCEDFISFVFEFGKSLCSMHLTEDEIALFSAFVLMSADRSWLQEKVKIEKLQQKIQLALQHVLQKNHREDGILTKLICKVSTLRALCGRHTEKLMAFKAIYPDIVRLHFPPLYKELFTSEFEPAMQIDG
Procedure: HEK293T cells were transfected with Lipofectamine 8000 (ThermoFisher) strictly following the manufacturer’s instructions. Cotransfected HEK293T cells with RORα or RORγ plasmid and a reporter consisting of the G6Pase or FGF21 promoters upstream of a luciferase reporter gene. 500 ng plasmid DNA was transfected into each well of 24 well-plate 24 h after the transfection, DMSO or Gala-SR and SR1078 (5 µmol/L) was added and incubated for 24 h. The Lumicycle instrument detects luminescence and records the numerical value.

human U2OS cells = test: CCK-8 assay and live-dead staining; type: cell-based; conditions: 1-100 μmol/L, 24, 48, 72 h, pronounced above 10 μmol/L
Procedure: U2OS cells were seeded at a density of 10 000 cells per well in a 96-well plate, with 100 μL of culture medium added to each well. The cells were incubated at 37 °C in a 5% CO2 atmosphere for 24 h or until they reached the logarithmic growth phase. Following this, the cells were treated with SR1078, Gala-SR, Malt-SR, and Mann-SR and incubated for 24, 48, and 72 h. 10 μL of CCK-8 reagent was added to each well, and the plate was returned to the incubator for an additional 1–4 h. Absorbance at 450 nm was then measured using a microplate reader. The average absorbance for each well was calculated, and relative cell viability was determined by comparing the absorbance values to those of the control group.
332 Figure S25. After U2OS cells were treated with various concentrations (0 ~ 50 μM) of SR1078,
333 Gala-SR, Malt-SR, and Mann-SR for 24 hours, live and dead cells were labeled using the
334 Calcein-AM/PI double-staining method. Scale bar: 50 μm.
Body weight changes (%) in
338 C57BL/6J mice (n = 4) after 7 days of administration of Gala-SR, SR1078, or DMSO at doses of 10
339 mg/kg and 50 mg/kg via IP were measured. […]

[3] = ip, 10 mg/kg, 10 mg/kg IP, read-out: MRTInf_obs (mean retention time)
[4] = iv, 10 mg/kg, 10 mg/kg IV, read-out: MRTInf_obs

Structure (SMILES): O=C(Nc1ccc(C(O)(C(F)(F)F)C(F)(F)F)cc1)c1ccc(C(F)(F)F)cc1 [SR1078, reference compound]
- AUC/D ([1]; 10 mg/kg IP): 190.962 kg·ng·h/mL/mg
- MRTInf_obs (mean retention time) ([1]; 10 mg/kg IP, 10 mg/kg): 1.194 h
- AUC/D ([1]; 10 mg/kg IV): 254.24 kg·ng·h/mL/mg
- AUC ([1]; 10 mg/kg IP): 1910 ng·h/mL
- Cmax ([1]; 10 mg/kg IP): 1810 ng/mL
- Tmax ([1]; 10 mg/kg IP): 30 min
- half-life ([1]; 10 mg/kg IP): 58.2 min
- concentration at 8 h ([1]; 10 mg/kg IP): 2.96 ng/mL
- AUC ([1]; 10 mg/kg IV): 2540 ng·h/mL
- Cmax ([1]; 10 mg/kg IV): 7130 ng/mL
- Tmax ([1]; 10 mg/kg IV): 30 min
- half-life ([1]; 10 mg/kg IV): 58.8 min
- bioavailability ([1]; 10 mg/kg): ~75.1%
- MRT inf [1, 3]: 1.19 h
- MRT inf [1, 4]: 0.487 h
- solubility kinetic at 2 h (Kinetic solubility test): 4.15 µM (≈ 1.79 µg/mL)
- periodontal tissue destruction (HE staining) [2]: attenuated periodontal tissue destruction
- rhythmic expression of circadian genes in periodontal tissue [2]: restored their rhythmic expression
- alveolar bone resorption (Micro-CT) [2]: significantly reduced alveolar bone resorption
- IL-10-positive cell populations [2]: markedly increased
- NF-κB pathway mediators Tnf-α and Il-6 [2]: significantly downregulated
- TRAP-positive cell numbers (osteoclastic activity) [2]: marked reduction
- luminescence of G6Pase and FGF21 luciferase reporters (RORα; 5 μmol/L): marked augmentation in the luminescence

Structure (SMILES): O=C(Nc1ccc(C(OCO[C@@H]2O[C@H](CO)[C@H](O)[C@H](O)[C@H]2O)(C(F)(F)F)C(F)(F)F)cc1)c1ccc(C(F)(F)F)cc1 [Gala-SR]
- AUC/D ([1]; 10 mg/kg IP): 607.73 kg·ng·h/mL/mg
- AUC/D ([1]; 10 mg/kg IV): 817.62 kg·ng·h/mL/mg
- AUC ([1]; 10 mg/kg IP): 6080 ng·h/mL
- Cmax ([1]; 10 mg/kg IP): 1310 ng/mL
- Tmax ([1]; 10 mg/kg IP): 30 min
- half-life ([1]; 10 mg/kg IP): 206 min
- concentration at 8 h ([1]; 10 mg/kg IP): 202 ng/mL
- AUC ([1]; 10 mg/kg IV): 8180 ng·h/mL
- Cmax ([1]; 10 mg/kg IV): 4990 ng/mL
- Tmax ([1]; 10 mg/kg IV): 30 min
- half-life ([1]; 10 mg/kg IV): 149 min
- bioavailability ([1]; 10 mg/kg): ~74.3%
- MRT inf [1, 3]: 4.5 h
- MRT inf [1, 4]: 2.97 h
- solubility kinetic at 2 h (Kinetic solubility test): 282 µM (≈ 176 µg/mL)
- periodontal tissue destruction (HE staining) [2]: attenuated periodontal tissue destruction
- rhythmic expression of circadian genes in periodontal tissue [2]: restored their rhythmic expression
- alveolar bone resorption (Micro-CT) [2]: significantly reduced alveolar bone resorption
- IL-10-positive cell populations [2]: markedly increased
- NF-κB pathway mediators Tnf-α and Il-6 [2]: significantly downregulated
- TRAP-positive cell numbers (osteoclastic activity) [2]: marked reduction
- cytotoxicity / cell compatibility (human U2OS cells): superior among all the evaluated groups
- expression of G6Pase and FGF21 luciferase reporter genes compared to SR1078 (RORα; 5 μmol/L): substantially elevated expression
- activation of luciferase reporters, with galactosidase inhibitor (RORα; 5 μmol/L Gala-SR + β-galactosidase inhibitor, vs Gala-SR alone): significantly decreased compared to the original level
- expression of G6Pase and FGF21 luciferase reporter genes, combined with galactosidase (RORα; 5 μmol/L Gala-SR + β-galactosidase, vs Gala-SR alone): significantly enhanced expression
- luminescence of G6Pase and FGF21 luciferase reporters (RORα; 5 μmol/L): marked augmentation in the luminescence
